Where a name gives a salt, the structure may show the parent alone.
Key:
[1] = Seven-day dose-range finding study in rats; format: in vivo, rat
[2] = system: SW-620; assay: Growth inhibition, neutral red assay, SW-620; format: cell-based, human; conditions: free base, five days
Protocol: (§1) Compound I's activity is not confined to activity against colon cancer cell lines or animal models of colon cancer. It has a broad range of anti-neoplastic effects in various neoplastic cell lines. Various types of human cancer cell lines were propagated under sterile conditions in RPMI 1640 medium with 10% fetal bovine serum, 2 mM L-glutamine and sodium bicarbonate. To determine growth inhibitory effects of Compound I, cells were seeded in 96-well plates at a density of 1000 cells per well. Twenty-four hours after plating, the cells were dosed with various concentrations of the free base of Compound I solubilized in DMSO (final concentration 0.1%). The effect of the drug on tumor cell growth was determined using the neutral red cytotoxicity assay following five days of continuous treatment. Neutral red is a dye that is selectively taken up by viable cells by an ATP-dependent transport mechanism.

[3] = Single, escalating dose human safety study; format: in vivo; conditions: single escalating oral doses
[4] = system: CCRF-CEM; assay: Growth inhibition, neutral red assay, CCRF-CEM; format: cell-based; conditions: Homo sapiens, HCl salt
Protocol: as §1

[5] = system: panel of cultured human cell lines derived from various tissue origins; assay: Growth inhibition, neutral red assay, whole panel; format: cell-based; conditions: all cell lines of the panel, read-out: GI50 value calculated for all cell lines
Protocol: as §1

[6] = 28-day study in rats; format: in vivo, rat
[7] = system: SW-480 cell line; assay: Growth inhibition in SW-480; format: cell-based; conditions: Homo sapiens, SW480
Protocol: The growth inhibition IC50 value obtained for Compound I was 0.7 μM in the SW-480 cell line. […] This established rodent model of azoxymethane (“AOM”)-induced carcinogenesis was used to assess the effects of Compound I (free base and salt) on colon cancer development in vivo. ACF are precursors to colonic tumors, and ACF inhibition is predictive of chemo-preventive efficacy.

[8] = dog, in vivo
[9] = system: β-catenin and PKG levels in SW480 cells; assay: Western blot of β-catenin and PKG in SW480; format: cell-based, human
Protocol: SW480 cells treated with exisulind as described previously are harvested from the microfuge tubes by rinsing once with ice-cold PBS. The cells are lysed by modified RIPA buffer for 15 minutes with agitation. The cell lysate is spun down in a cold room. The supernatants are transferred to fresh microcentrifuge tubes immediately after spinning. BioRad DC Protein Assay (Temecula, Calif.) is performed to determine the protein concentrations in samples. The samples are normalized for protein concentration, as described above.
50 μg of each sample is loaded to 10% SDS gel. SDS-PAGE is performed, and the proteins then are transferred to a nitrocellulose membrane. The blotted nitrocellulose membrane are blocked in freshly prepared TBST containing 5% nonfat dry milk for one hour at room temperature with constant agitation.
A goat-anti-PKG primary antibody is diluted to the recommended concentration/dilution in fresh TBST/5% nonfat dry milk. The nitrocellulose membrane is placed in the primary antibody solution and incubated one hour at room temperature with agitation. The nitrocellulose membrane is washed three times for ten minutes each with TBST. […]
This observation was made by culturing SW480 cells with either 200, 400 or 600 μM exisulind or vehicle (0.1% DMSO). […] Immuno-reactive protein can be detected by Western blot. […]

[10] = biological target: T1, cGMP binding sites of the GST-cGB-PDE5 protein (Homo sapiens, UniProt O76074); assay: cGMP binding assay with GST-cGB-PDE5 fusion protein; conditions: 3H-cGMP 2 μM
T1 construct: made in house; host or cells: E. coli BL21 (DE3)
T1 sequence (O76074 46-539 limits assumed): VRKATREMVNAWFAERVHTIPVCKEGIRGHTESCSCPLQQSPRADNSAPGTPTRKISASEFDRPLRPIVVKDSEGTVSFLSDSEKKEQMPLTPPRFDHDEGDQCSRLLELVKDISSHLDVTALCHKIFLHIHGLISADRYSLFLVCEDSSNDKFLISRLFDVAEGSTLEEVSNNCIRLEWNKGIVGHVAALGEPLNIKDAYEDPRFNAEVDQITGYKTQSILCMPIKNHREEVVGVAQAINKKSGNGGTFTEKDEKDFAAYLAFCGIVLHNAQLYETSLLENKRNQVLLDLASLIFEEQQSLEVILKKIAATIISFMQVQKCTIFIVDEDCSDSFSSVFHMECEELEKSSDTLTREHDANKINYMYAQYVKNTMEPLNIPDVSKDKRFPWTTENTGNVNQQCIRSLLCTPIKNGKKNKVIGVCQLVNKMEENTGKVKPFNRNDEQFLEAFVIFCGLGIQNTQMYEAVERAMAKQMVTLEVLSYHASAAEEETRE

[11] = system: HCT116, Colon; assay: Growth inhibition, SRB assay, HCT116; format: cell-based; conditions: Homo sapiens, HCT-116
Source text: A compound's ability to inhibit tumor cell growth can be measured using the HT-29 human colon carcinoma cell line obtained from ATCC. HT-29 cells have previously been characterized as a relevant colon tumor cell culture model (Fogh, J., and Trempe, G. In: Human Tumor Cells in Vitro, J. Fogh (eds.), Plenum Press, New York, pp. 115-159, 1975). HT-29 cells are maintained in RPMI media supplemented with 5% fetal bovine calf serum (Gemini Bioproducts, Inc., Carlsbad, Calif.) and 2 mm glutamine, and 1% antibiotic-antimycotic in a humidified atmosphere of 95% air and 5% CO2 at 37° C. Briefly, HT-29 cells are plated at a density of 500 cells/well in 96 well microtiter plates and incubated for 24 hours at 37° C. prior to the addition of compound. […] After six days in culture, the cells are fixed by the addition of cold trichloroacetic acid to a final concentration of 10% and protein levels are measured using the sulforhodamine B (SRB) colorimetric protein stain assay as previously described by Skehan, P., Storeng, R., Scudiero, D., Monks, A., McMahon, J., Vistica, D., Warren, J. T., Bokesch, H., Kenney, S., and Boyd, M. R., “New Colorimetric Assay For Anticancer-Drug Screening,” J. Natl. Cancer Inst. […]
To show the effectiveness of this screening method on various forms of neoplasia, compounds were tested on numerous cell lines. […] The IC50 values were determined by the SRB assay. […]

CC1=C(CC(=O)NCc2ccccc2)c2cc(F)ccc2/C1=C\c1ccncc1 [Compound I, (Z)-5-fluoro-2-methyl-(4-pyridylidene)-3-(N-benzyl)indenylacetamide hydrochloride]
signs of toxicity, seven-day study ([1]; 50 mg/kg/day): no observable signs of toxicity | treatment-related effects, seven-day study ([1]; 500 mg/kg/day): increase in absolute and relative liver weights in female rats | effects, seven-day study ([1]; 2000 mg/kg/day): labored breathing and/or abnormal respiratory sounds, decreased weights gains and food consumption in male rats, and increased liver weights in female rats | GI50 ([2]; Homo sapiens, SW-620, 120 h): 1.7 µM | GI90 μM, SW-620 [2]: 2.5 µM | side effects in humans [3]: no significant side effects at any dose | GI50 [4]: 1.4 µM | GI50 [5]: 1000 to 2000 nM | organ weight data, 28-day study ([6]; rats, 2000 mg/kg/day): statistically significant increase in liver weights | clinical observations, 28-day study ([6]; rats, 50, 500 and 2000 mg/kg/day): no abnormal clinical observations | IC50 [7]: 700 nM | signs of toxicity, single dose in capsules ([8]; 1000 mg/kg): no signs of toxicity | drug-related effects, single and seven consecutive doses ([8]; 1000 mg/kg/day): At no time in either dosing phase were any obvious signs of drug-related effects observed

CC1=C(CC(=O)O)c2cc(F)ccc2/C1=C\c1ccc(S(C)(=O)=O)cc1 [Exisulind, 5-fluoro-2-methyl-1-(p-methylsulfonylbenzylidene)-3-indenylacetic acid]
reduction of expression of β-catenin compared to control ([9]; SW480, 200, 400 or 600 μM, 48 hours, Western blot): 50% | PKG level by Western blot ([9]; SW480, 48 hours): increase of PKG | competition with cGMP in binding of GST-cGB-PDE5 [10]: do not bind to the cGMP binding sites of PDE5 | IC50 [11]: 90 µM

Source: US20030109418A1, “Methods for identifying compounds for inhibition of neoplastic lesions, and pharmaceutical compositions containing such compounds” (priority 1999, published 2003)
